Activity calls are given as the source filed them.
Columns and labels:
NCI-H460 [1] = experiment: Induction of apoptosis in human NCI-H460 cells assessed as caspase-3 cleavage at 50 uM after 24 hrs by Western blot analysis in presence of PKC promoter PMA, JNK inhibitor SP600125; type: functional, cell-based
[2] = target: T1, PKC alpha and beta-2 (Homo sapiens) (UniProt P17252+P05771); experiment: Inhibition of PKC alpha/beta-2 phosphorylation in human NCI-H460 cells at 50 uM after 24 hrs by Western blot analysis in presence of PKC promoter PMA, JNK inhibitor SP600125; type: cell-based
T1 sequence (P05771 whole entry, looked up): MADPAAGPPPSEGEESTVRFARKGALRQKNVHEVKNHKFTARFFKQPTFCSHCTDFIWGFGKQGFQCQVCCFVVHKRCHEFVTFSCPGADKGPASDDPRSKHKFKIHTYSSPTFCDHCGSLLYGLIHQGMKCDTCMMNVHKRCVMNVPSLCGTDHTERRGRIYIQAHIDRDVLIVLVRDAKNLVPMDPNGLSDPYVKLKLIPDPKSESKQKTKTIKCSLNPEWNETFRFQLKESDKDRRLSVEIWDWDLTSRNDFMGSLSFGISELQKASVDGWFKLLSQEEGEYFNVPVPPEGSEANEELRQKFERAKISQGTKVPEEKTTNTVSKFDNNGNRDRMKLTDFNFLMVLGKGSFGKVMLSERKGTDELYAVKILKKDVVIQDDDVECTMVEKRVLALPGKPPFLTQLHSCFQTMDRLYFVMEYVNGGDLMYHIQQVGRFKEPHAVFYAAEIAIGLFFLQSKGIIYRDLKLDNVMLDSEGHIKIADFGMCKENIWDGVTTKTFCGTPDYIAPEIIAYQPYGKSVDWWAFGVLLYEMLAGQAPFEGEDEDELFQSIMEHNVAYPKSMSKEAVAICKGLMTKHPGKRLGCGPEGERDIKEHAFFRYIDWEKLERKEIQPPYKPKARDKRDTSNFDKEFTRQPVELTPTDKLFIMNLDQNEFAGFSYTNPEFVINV

NCI-H460 [3] = experiment: Induction of apoptosis in human NCI-H460 cells assessed as downregulation of Bcl-2 protein expression at 12.5 to 50 uM after 24 hrs by Western blot analysis; type: functional, cell-based
NCI-H460 [4] = experiment: Induction of apoptosis in human NCI-H460 cells assessed as DNA fragmentation after 24 hrs by DAPI staining-based TUNEL assay; type: functional, cell-based
NCI-H460 [5] = experiment: Induction of apoptosis in human NCI-H460 cells assessed as downregulation of Bcl-xL protein expression at 12.5 to 50 uM after 24 hrs by Western blot analysis; type: functional, cell-based
A549 [6] = experiment: Induction of apoptosis in human A549 cells assessed as PARP cleavage at 12.5 to 50 uM after 24 hrs by Western blot analysis; type: functional, cell-based
NCI-H460 [7] = experiment: Cell cycle arrest in human NCI-H460 cells assessed as accumulation at sub-G1 phase after 1 hr by propidium iodide staining-based flow cytometric analysis; type: functional
NCI-H460 [8] = experiment: Cell cycle arrest in human NCI-H460 cells assessed as accumulation at sub-G1 phase at 12.5 uM after 1 hr by propidium iodide staining-based flow cytometric analysis (reference value: 2.2%); type: functional
NCI-H460 [9] = experiment: Induction of apoptosis in human NCI-H460 cells assessed as downregulation of cyclin E protein expression at 12.5 to 50 uM after 24 hrs by Western blot analysis; type: functional, cell-based
NCI-H460 [10] = experiment: Induction of apoptosis in human NCI-H460 cells assessed as PARP cleavage at 50 uM after 24 hrs by Western blot analysis in presence of PKC promoter PMA, JNK inhibitor SP600125; type: functional, cell-based
A549 [11] = experiment: Cytotoxicity against human A549 cells assessed as cell viability after 24 hrs by XTT assay; type: functional, cell-based; settings: A549, 24 h
[12] = target: T1, PKC alpha and beta-2 (Homo sapiens); experiment: Inhibition of PKC alpha/beta-2 phosphorylation in human NCI-H460 cells at 12.5 to 50 uM after 24 hrs by Western blot analysis; type: cell-based
NCI-H460 [13] = experiment: Cell cycle arrest in human NCI-H460 cells assessed as accumulation at sub-G1 phase at 50 uM after 24 hrs by propidium iodide staining-based flow cytometric analysis in presence of PKC promoter PMA, JNK inhibitor SP600125; type: functional
NCI-H460 [14] = experiment: Cytotoxicity against human NCI-H460 cells assessed as cell viability after 24 hrs by XTT assay; type: functional, cell-based; settings: NCI-H460, 24 h
NCI-H460 [15] = experiment: Induction of apoptosis in human NCI-H460 cells assessed as activation of caspase 9/3 at 12.5 to 50 uM after 24 hrs by Western blot analysis; type: functional, cell-based
NCI-H460 [16] = experiment: Induction of apoptosis in human NCI-H460 cells assessed as PARP cleavage at 12.5 to 50 uM after 24 hrs by Western blot analysis; type: functional, cell-based
NCI-H460 [17] = experiment: Cell cycle arrest in human NCI-H460 cells assessed as accumulation at sub-G1 phase at 50 uM after 1 hr by propidium iodide staining-based flow cytometric analysis (reference value: 2.2%); type: functional
NCI-H460 [18] = experiment: Inhibition of ERK phosphorylation in human NCI-H460 cells at 12.5 to 50 uM after 24 hrs by Western blot analysis; type: cell-based
A549 [19] = experiment: Cell cycle arrest in human A549 cells assessed as accumulation at sub-G1 phase at 50 uM after 1 hr by propidium iodide staining-based flow cytometric analysis; type: functional
[20] = target: Protein kinase C delta type (Homo sapiens) (UniProt Q05655); experiment: Induction of PKC-delta phosphorylation in human NCI-H460 cells at 12.5 to 50 uM after 24 hrs by Western blot analysis; type: cell-based
Protein kinase C delta type (Homo sapiens), sequence (Q05655 whole entry, looked up): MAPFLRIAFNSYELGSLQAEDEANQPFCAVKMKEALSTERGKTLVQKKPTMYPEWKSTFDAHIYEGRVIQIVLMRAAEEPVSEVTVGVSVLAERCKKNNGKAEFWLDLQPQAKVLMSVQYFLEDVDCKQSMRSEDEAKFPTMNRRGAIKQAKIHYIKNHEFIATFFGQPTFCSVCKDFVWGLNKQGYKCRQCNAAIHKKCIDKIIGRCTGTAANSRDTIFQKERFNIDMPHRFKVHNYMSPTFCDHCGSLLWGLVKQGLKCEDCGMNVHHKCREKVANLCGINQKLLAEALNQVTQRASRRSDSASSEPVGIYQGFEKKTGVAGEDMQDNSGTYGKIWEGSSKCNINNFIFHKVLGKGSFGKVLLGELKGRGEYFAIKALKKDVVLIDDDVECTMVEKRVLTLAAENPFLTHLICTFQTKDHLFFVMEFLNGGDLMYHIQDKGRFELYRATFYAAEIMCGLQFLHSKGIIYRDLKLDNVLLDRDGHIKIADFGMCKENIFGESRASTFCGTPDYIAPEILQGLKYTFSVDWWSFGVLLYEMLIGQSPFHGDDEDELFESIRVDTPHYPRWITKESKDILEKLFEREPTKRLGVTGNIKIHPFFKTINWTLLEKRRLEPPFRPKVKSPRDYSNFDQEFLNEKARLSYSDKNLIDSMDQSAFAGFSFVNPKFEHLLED

NCI-H460 [21] = experiment: Induction of apoptosis in human NCI-H460 cells assessed as downregulation of cyclin D1 protein expression at 12.5 to 50 uM after 24 hrs by Western blot analysis; type: functional, cell-based
[22] = target: c-Jun N-terminal kinase, JNK (Homo sapiens) (UniProt P45983+P53779+P45984); experiment: Induction of c-Jun N-terminal kinase phosphorylation in human NCI-H460 cells at 12.5 to 50 uM after 24 hrs by Western blot analysis; type: cell-based

CC1(C)[C@@H](O)CC[C@]2(C)[C@H]3C(=O)C=C4[C@@H]5C[C@@](C)(C(=O)O)CC[C@]5(C)CC[C@@]4(C)[C@]3(C)CC[C@@H]12 [ENOXOLONE]
2.8%: Activity (NCI-H460 [8])
inactive: Activity (NCI-H460 [1]) | inhibition [2] | Activity (NCI-H460 [10]) | Activity (NCI-H460 [13])
40.1%: Activity (NCI-H460 [17])
78 mg/L: IC50 (A549 [11])
62 mg/L: IC50 (NCI-H460 [14])
active: Activity (NCI-H460 [3]) | Activity (NCI-H460 [4]) Dose-dependent effect | Activity (NCI-H460 [5]) | Activity (A549 [6]) | Activity (NCI-H460 [7]) Dose-dependent effect | Activity (NCI-H460 [9]) | inhibition [12] | Activity (NCI-H460 [15]) | Activity (NCI-H460 [16]) | inhibition (NCI-H460 [18]) | Activity (A549 [19]) | Activity [20] | Activity (NCI-H460 [21]) | Activity [22]
